Assay results taken from US9790407B2, “Aqueous detergent soluble coating and adhesive and methods of temporary bonding for manufacturing” (priority 2013, dated 2017).

What was measured:
[1] = Water solubility of carboxylic acid coatings (Example 1); conditions: acidic coating; materials dissolved in n,n-dimethylacetamide (DMAC)
Description: (§1) Water solubility is tested and thermal resistance is indicated for each material.

[2] = Detergency solubility of carboxylic acid coatings in KOH based system (Example 1); format: physicochemical; conditions: acidic coating, materials dissolved in DMAC
Description: as §1

Compound	Water solubility (observed) [1]	Detergency (KOH based system) [2]
O=C(O)/C=C/C(=O)O [Fumaric Acid]	Limited/no	Partial
O=C(O)c1cccc(C(=O)O)c1 [Isophthalic acid]	Limited/no	Yes
O=C(O)c1ccc(O)cc1 [P-hydroxybenzoic acid]	Limited/no	Yes
O=C(O)c1ccccc1C(=O)O [Phthalic Acid]	–	Yes
O=C(O)c1ccc(C(=O)O)cc1 [Terephthalic acid]	–	Partial
